Measurements taken from the NIST ThermoML archive (doi:10.1021/acs.jced.5b00197).
Numbers after ± are expanded uncertainties.

Test: xn = mol fraction of the nth substance listed
Settings: 96.64 kPa, Liquid, mechanical oscillator

CC(=O)O [acetic acid] + O
mass density [kg/m3]
Settings | 293.15 K | 298.15 K | 303.15 K
x1 = 0.0322 | 1013.1 ± 6.2 | 1010.07 ± 6.2 | 1007.37 ± 6.2
x1 = 0.0697 | 1029.11 ± 6 | 1024.31 ± 6 | 1021.16 ± 6
x1 = 0.114 | 1040.03 ± 5.8 | 1036.43 ± 5.8 | 1032.93 ± 5.8
x1 = 0.167 | 1049.79 ± 5.5 | 1045.44 ± 5.5 | 1039.59 ± 5.5
x1 = 0.231 | 1057.69 ± 5.2 | 1053.12 ± 5.2 | 1048.56 ± 5.2
x1 = 0.31 | 1064.29 ± 4.9 | 1059.45 ± 4.9 | 1054.48 ± 4.8
x1 = 0.412 | 1068.57 ± 4.5 | 1063.31 ± 4.5 | 1058.16 ± 4.5
x1 = 0.545 | 1068.93 ± 4.2 | 1063.47 ± 4.2 | 1058.01 ± 4.2
x1 = 0.629 | 1067.42 ± 4.1 | 1061.15 ± 4.1 | 1057.17 ± 4.1
x1 = 0.729 | 1062.82 ± 4 | 1058.08 ± 4 | 1053.26 ± 4
x1 = 0.85 | 1059.62 ± 4 | 1053.73 ± 4 | 1047.95 ± 4
x1 = 1 | 1049.63 ± 4 | 1043.57 ± 4 | 1037.64 ± 4

CC(=O)O [acetic acid] + Cc1ccccc1
mass density [kg/m3]
Settings | 293.15 K | 298.15 K | 303.15 K
x1 = 0.146 | 878.94 ± 4 | 873.65 ± 4 | 868.47 ± 4
x1 = 0.277 | 894.11 ± 4 | 888.81 ± 4 | 883.38 ± 4
x1 = 0.397 | 907.9 ± 4 | 902.58 ± 4 | 897.1 ± 4
x1 = 0.506 | 924.08 ± 4 | 918.49 ± 4 | 912.96 ± 4
x1 = 0.605 | 940.43 ± 4 | 934.75 ± 4 | 929.15 ± 4
x1 = 0.697 | 960 ± 4 | 954.12 ± 4 | 948.31 ± 4
x1 = 0.782 | 978.4 ± 4 | 972.48 ± 4 | 966.6 ± 4
x1 = 0.859 | 1000.2 ± 4 | 994.34 ± 4 | 988.34 ± 4
x1 = 0.897 | 1017.74 ± 4 | 1011.75 ± 4 | 1005.81 ± 4
x1 = 0.932 | 1027.84 ± 4 | 1021.82 ± 4 | 1015.9 ± 4
x1 = 0.967 | 1038.11 ± 4 | 1032.17 ± 4 | 1026.28 ± 4
x1 = 1 | 1049.63 ± 4 | 1043.57 ± 4 | 1037.64 ± 4
